Assay results from the supplement of paper PMC10307832.

Tests used:
Test in all cases: relative viability (nuclei count vs DMSO), 5 days (fraction); higher = more cells survive
AZD1208 + AZD7762 = compound: N[C@@H]1CCCN(c2c(/C=C3\SC(=O)NC3=O)cccc2-c2ccccc2)C1 [AZD1208] + NC(=O)Nc1cc(-c2cccc(F)c2)sc1C(=O)N[C@H]1CCCNC1 [AZD7762] (partner 0.2 µM)
In short: (§1)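 Medians of duplicate plates are given as relative viability. That measure is the nuclei count in treated wells divided by the count in vehicle wells. Counts were taken on 4× images of lung cancer cell lines in 1536-well plates, 5 days after pin-tool dosing the day after seeding with one drug alone or a fixed anchor-drug dose plus five library-drug doses (not always all listed) in √10 steps.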

XMD14-99 + Pictilisib = compound: CN1CCN(CC1)C2=CC(=C(C=C2)NC3=NC(=C(S3)C(=O)C4=C(C=CC=C4Cl)Cl)N)OC [XMD14-99] + CS(=O)(=O)N1CCN(Cc2cc3nc(-c4cccc5[nH]ncc45)nc(N4CCOCC4)c3s2)CC1 [Pictilisib] (partner 1 µM)
In short: as §1

XMD14-99 + Decitabine = compound: CN1CCN(CC1)C2=CC(=C(C=C2)NC3=NC(=C(S3)C(=O)C4=C(C=CC=C4Cl)Cl)N)OC [XMD14-99] + Nc1ncn([C@H]2C[C@H](O)[C@@H](CO)O2)c(=O)n1 [Decitabine] (partner 2 µM)
In short: as §1

AZD1208 + Trametinib = compound: N[C@@H]1CCCN(c2c(/C=C3\SC(=O)NC3=O)cccc2-c2ccccc2)C1 [AZD1208] + CC(=O)Nc1cccc(-n2c(=O)n(C3CC3)c(=O)c3c(Nc4ccc(I)cc4F)n(C)c(=O)c(C)c32)c1 [Trametinib] (partner 0.02 µM)
In short: as §1

Cell Line	relative viability (AZD1208 + AZD7762; first compound 0.08 µM)	relative viability (AZD1208 + AZD7762; first compound 0.253 µM)	relative viability (AZD1208 + AZD7762; first compound 0.8 µM)	relative viability (AZD1208 + AZD7762; first compound 2.53 µM)	relative viability (AZD1208 + AZD7762; first compound 8 µM)	relative viability (XMD14-99 + Pictilisib; first compound 0.08 µM)	relative viability (XMD14-99 + Pictilisib; first compound 0.8 µM)	relative viability (XMD14-99 + Pictilisib; first compound 2.53 µM)	relative viability (XMD14-99 + Pictilisib; first compound 8 µM)	relative viability (XMD14-99 + Decitabine; first compound 0.08 µM)	relative viability (XMD14-99 + Decitabine; first compound 0.8 µM)	relative viability (XMD14-99 + Decitabine; first compound 2.53 µM)	relative viability (XMD14-99 + Decitabine; first compound 8 µM)	relative viability (AZD1208 + Trametinib; first compound 0.08 µM)	relative viability (AZD1208 + Trametinib; first compound 0.253 µM)	relative viability (AZD1208 + Trametinib; first compound 0.8 µM)	relative viability (AZD1208 + Trametinib; first compound 2.53 µM)	relative viability (AZD1208 + Trametinib; first compound 8 µM)
LXF-289	1.13	1.27	1.19	1.22	1.38	0.699	0.824	0.753	0.597	0.378	0.371	0.37	0.36	0.678	0.629	0.673	0.694	0.747
NCI-H23	0.245	0.251	0.243	0.228	0.29	0.46	0.547	0.526	0.383	0.288	0.262	0.338	0.309	0.361	0.301	0.272	0.347	0.303
NCI-H322M	0.627	0.545		0.53	0.552	0.514	0.538	0.495	0.476	0.684	0.667	0.706	0.645	0.49	0.487		0.566	0.578
NCI-H358	0.454	0.579	0.436	0.467	0.451	0.327	0.301	0.229	0.176	0.231	0.187	0.203	0.174	0.118	0.109	0.12	0.12	0.102
NCI-H441	1.12	1.16	0.936	1.21	1.16	0.451	0.442	0.51	0.283	0.279	0.242	0.308	0.234	0.515	0.547	0.327	0.405	0.446
NCI-H460	0.844	0.716	0.643	0.824	0.7	0.335	0.378	0.345	0.254	0.461	0.486	0.495	0.385	0.137	0.189	0.138	0.109	0.124
NCI-H596	1.17	1.07	1.01	1.01	0.666	0.399	0.413	0.35	0.396	1.03	0.943	0.858	0.964	0.759	0.905	0.79	0.654	0.446
NCI-H647	0.638	0.547	0.466	0.378	0.497	0.421	0.412	0.472	0.379	0.378	0.41	0.475	0.364	0.383	0.503	0.567	0.471	0.358
NCI-H650	1.05	1.09	0.795	0.833	0.871	0.931	0.992	0.805	0.72	0.272	0.318	0.292	0.319	0.852	0.904	1.1	0.93	0.743
NCI-H727	0.586	0.708	0.502	0.441	0.518	0.551	0.403	0.321	0.276	0.881	0.805	0.857	0.599	0.413	0.325	0.352	0.395	0.39
NCI-H838	0.931	1.02	0.887	0.993	1.01	0.434	0.411	0.38	0.296	0.477	0.452	0.426	0.436	0.482	0.629	0.448	0.476	0.457
NCI-H1355	0.75	0.836	0.686	0.732	0.628	0.483	0.439	0.378	0.327	0.381	0.339	0.343	0.346	0.429	0.391	0.416	0.401	0.366
NCI-H1395	0.39	0.401	0.377	0.448	0.367	0.626	0.67	0.585	0.535	0.696	0.7	0.712	0.653	1.03	1.08	0.932	1.01	0.878
NCI-H1437	1.18	1.13	1.06	1.09	1.05	0.392	0.416	0.34	0.214	0.621	0.469	0.458	0.417	0.423	0.597	0.358	0.419	0.408
NCI-H1651	0.458	0.54		0.439	0.472	0.547	0.521	0.593	0.461	0.683	0.546	0.601	0.509	0.87	0.81		0.742	0.746
NCI-H1666	0.953	0.888	0.762	0.856	0.937	0.449	0.448	0.403	0.343	0.81	0.628	0.686	0.567	0.764	0.907	0.687	0.667	0.725
NCI-H1734	0.499	0.543	0.469	0.465	0.425	0.436	0.447	0.513	0.389	0.505	0.494	0.477	0.477	0.659	0.583	0.535	0.525	0.434

Cell Line	relative viability (AZD1208 + AZD7762; first compound 0.08 µM)	relative viability (AZD1208 + AZD7762; first compound 0.253 µM)	relative viability (AZD1208 + AZD7762; first compound 0.8 µM)	relative viability (AZD1208 + AZD7762; first compound 2.53 µM)	relative viability (AZD1208 + AZD7762; first compound 8 µM)	relative viability (XMD14-99 + Pictilisib; first compound 0.08 µM)	relative viability (XMD14-99 + Pictilisib; first compound 0.8 µM)	relative viability (XMD14-99 + Pictilisib; first compound 2.53 µM)	relative viability (XMD14-99 + Pictilisib; first compound 8 µM)	relative viability (XMD14-99 + Decitabine; first compound 0.08 µM)	relative viability (XMD14-99 + Decitabine; first compound 0.8 µM)	relative viability (XMD14-99 + Decitabine; first compound 2.53 µM)	relative viability (XMD14-99 + Decitabine; first compound 8 µM)	relative viability (AZD1208 + Trametinib; first compound 0.08 µM)	relative viability (AZD1208 + Trametinib; first compound 0.253 µM)	relative viability (AZD1208 + Trametinib; first compound 0.8 µM)	relative viability (AZD1208 + Trametinib; first compound 2.53 µM)	relative viability (AZD1208 + Trametinib; first compound 8 µM)
NCI-H1755	0.509	0.577	0.455	0.446	0.448	0.404	0.401	0.426	0.295	0.761	0.68	0.698	0.709	0.755	0.841	0.779	0.705	0.647
NCI-H1792	0.815	0.739		0.593	0.56	0.281	0.252	0.22	0.182	0.497	0.499	0.549	0.326	0.424	0.368		0.312	0.306
NCI-H1793	0.599	0.611	0.403	0.482	0.401	0.423	0.289	0.368	0.333	0.502	0.521	0.473	0.427	0.356	0.566	0.33	0.473	0.342
NCI-H1915	0.642	0.76	0.766	0.778	0.673	0.927	0.934	0.902	0.595	0.25	0.255	0.263	0.259	0.271	0.288	0.247	0.277	0.232
NCI-H1944	0.494	0.693	0.442	0.5	0.395	0.325	0.335	0.337	0.269	0.48	0.458	0.414	0.372	0.402	0.433	0.359	0.328	0.283
NCI-H1975	0.746	0.784	0.691	0.746	0.642	0.286	0.317	0.257	0.197	0.495	0.412	0.449	0.317	0.304	0.341	0.283	0.36	0.249
NCI-H1993	0.679	0.654	0.629	0.757	0.579	0.888	0.759	0.766	0.798	0.561	0.603	0.587	0.622	0.496	0.515	0.447	0.477	0.376
NCI-H2085	1	1.13	0.911	0.892	1.04	0.454	0.446	0.445	0.482	0.561	0.529	0.523	0.45	0.55	0.475	0.558	0.446	0.531
NCI-H2087	1.29	1.45	1.35	1.46	1.32	0.95	0.787	0.602	0.525	0.282	0.264	0.234	0.192	0.219	0.167	0.159	0.227	0.193
NCI-H2126	1.03	1.08	1.02	0.996	0.928	0.5	0.527	0.508	0.473	0.629	0.537	0.611	0.503	0.576	0.524	0.498	0.467	0.434
NCI-H2170	0.911	0.923	0.821	0.796	0.424	0.311	0.355	0.273	0.28	0.49	0.423	0.444	0.395	0.966	1	0.869	0.868	0.57
NCI-H2347	0.835	0.747	0.72	0.764	0.781	0.519	0.871	0.477	0.431	0.584	0.623	0.577	0.522	0.316	0.27	0.257	0.264	0.26
NCI-H2405	0.676	0.636	0.699	0.705	0.629	0.39	0.414	0.457	0.248	0.704	0.749	0.628	0.648	0.582	0.56	0.562	0.528	0.453
NCI-H3122	1.07	1.04	0.952	1.08	0.894	0.563	0.474	0.446	0.326	0.405	0.359	0.333	0.283	0.201	0.221	0.192	0.203	0.165
PC-3 [JPC-3]	1.03	0.89	0.692	0.793	0.823	0.793	0.73	0.717	0.586	0.75	0.88	0.797	0.774	0.732	0.825	0.688	0.711	0.723
PC-14	0.404	0.429	0.366	0.324	0.414	0.621	0.611	0.573	0.312	0.26	0.238	0.201	0.142	0.681	0.704	0.512	0.662	0.524
RERF-LC-KJ	0.991	1.08	0.631	0.759	0.611	0.668	0.521	0.487	0.477	0.737	0.674	0.665	0.506	0.903	0.844	0.727	0.776	0.548
